# Measurements as given in patent publication US7199132B2, “Tropane analogs and methods for inhibition of monoamine transport” (Organix, Inc., priority 2001, dated 2007).
# How the values were obtained:
# [1] = biological target: T1, dopamine transporter (Macaca fascicularis, UniProt Q9GJT6); assay: Dopamine transporter assay: inhibition of {3H}WIN 35,428 binding in caudate-putamen membranes; parameters: species or system rhesus or cynomolgus monkey; details: for SERT/DAT: selectivity ratio IC50 SERT / IC50 DAT; for IC50: IC50 (nM) DAT, inhibition of {3H}WIN 35,428 binding, monkey caudate-putamen, mean of 2 or more independent experiments in triplicate
# T1 construct: The caudate-putamen was dissected from coronal slices and yielded 1.4±0.4 g tissue; Membranes were prepared as described previously; from tissue; host or cells: caudate-putamen membranes of cynomolgus or rhesus monkey brain
# [2] = biological target: T2, serotonin transporter (Macaca mulatta, UniProt Q9MYX0); assay: Serotonin transporter assay: inhibition of {3H}citalopram binding in caudate-putamen membranes; parameters: species or system rhesus or cynomolgus monkey; details: IC50 (nM) SERT, monkey caudate-putamen, mean of 2 or more independent experiments in triplicate
# T2 construct: The serotonin transporter was assayed in caudate-putamen membranes using conditions similar to those for the dopamine transporter; from tissue; host or cells: caudate-putamen membranes of cynomolgus or rhesus monkey brain
# T2 sequence (Q9MYX0 whole entry): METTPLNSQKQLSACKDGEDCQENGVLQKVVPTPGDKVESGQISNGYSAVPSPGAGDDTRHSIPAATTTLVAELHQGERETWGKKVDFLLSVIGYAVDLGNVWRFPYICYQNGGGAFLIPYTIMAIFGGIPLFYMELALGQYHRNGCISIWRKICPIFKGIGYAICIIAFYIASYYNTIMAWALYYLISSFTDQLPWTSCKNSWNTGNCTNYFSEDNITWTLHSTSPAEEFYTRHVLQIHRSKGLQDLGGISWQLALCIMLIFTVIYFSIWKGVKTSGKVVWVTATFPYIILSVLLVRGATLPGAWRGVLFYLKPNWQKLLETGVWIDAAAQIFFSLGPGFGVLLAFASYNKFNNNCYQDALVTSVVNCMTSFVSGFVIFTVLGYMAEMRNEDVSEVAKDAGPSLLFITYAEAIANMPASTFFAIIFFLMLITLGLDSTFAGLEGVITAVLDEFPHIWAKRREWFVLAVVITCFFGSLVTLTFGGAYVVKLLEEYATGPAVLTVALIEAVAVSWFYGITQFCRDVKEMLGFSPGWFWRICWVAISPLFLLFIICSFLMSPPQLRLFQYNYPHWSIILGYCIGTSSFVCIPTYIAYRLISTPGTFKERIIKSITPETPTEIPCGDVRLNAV
# T1 sequence (Q9GJT6 whole entry): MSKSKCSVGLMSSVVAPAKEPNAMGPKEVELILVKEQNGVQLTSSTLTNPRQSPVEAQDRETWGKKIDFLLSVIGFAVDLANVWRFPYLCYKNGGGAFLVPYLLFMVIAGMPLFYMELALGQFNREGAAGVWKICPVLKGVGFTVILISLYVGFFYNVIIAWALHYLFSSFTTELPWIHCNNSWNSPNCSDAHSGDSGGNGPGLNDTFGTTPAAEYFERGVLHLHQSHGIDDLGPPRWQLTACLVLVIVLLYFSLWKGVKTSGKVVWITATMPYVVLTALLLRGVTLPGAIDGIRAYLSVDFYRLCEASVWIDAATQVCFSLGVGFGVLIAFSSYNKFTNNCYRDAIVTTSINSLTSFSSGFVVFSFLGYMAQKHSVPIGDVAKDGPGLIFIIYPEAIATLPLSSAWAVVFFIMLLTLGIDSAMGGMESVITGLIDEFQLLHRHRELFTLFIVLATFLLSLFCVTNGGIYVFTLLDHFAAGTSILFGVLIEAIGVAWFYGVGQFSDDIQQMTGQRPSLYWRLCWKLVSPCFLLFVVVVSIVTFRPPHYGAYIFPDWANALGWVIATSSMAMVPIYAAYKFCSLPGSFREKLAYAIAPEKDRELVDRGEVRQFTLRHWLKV
SMILES,melting point [°C],SERT/DAT [1],IC50 [2] [nM],IC50 [1] [nM]
"COC(=O)[C@@H]1[C@H]2[C@H](O)C[C@@H](C[C@@H]1c1ccc(F)cc1)N2C (racemic) [Compound 15c, 2β-Carbomethoxy-3β-(4-fluorophenyl)-7β-hydroxy-8-methyl-8-azabicyclo{3.2.1}octane]",179.3 to 181.3,>80,> 10000,
"COC(=O)C1=C(c2ccc(F)cc2)CC2C(O)CC1N2C (stereo not drawn) [Compound 7c, 2-Carbomethoxy-3-(4-fluorophenyl)-6β-hydroxy-8-methyl-8-azabicyclo{3.2.1}oct-2-ene]",124 to 126,1,> 20000,> 20000
"COC(=O)[C@H]1[C@@H](c2ccc(Cl)c(Cl)c2)C[C@@H]2[C@@H](O)C[C@H]1N2C (relative stereo) [Compound 14a, 2β-Carbomethoxy-3β-(3,4-dichlorophenyl)-6β-hydroxy-8-methyl-8-azabicyclo{3.2.1}octane]",93.5 to 95.5,55,166,
"COC(=O)[C@@H]1[C@H]2[C@H](O)C[C@@H](C[C@H]1c1ccc3ccccc3c1)N2C (relative stereo) [Compound 18b, 2β-Carbomethoxy-3α-(2-naphthyl)-7β-hydroxy-8-methyl-8-azabicyclo{3.2.1}octane]",140.1 to 141.9,34,94,
"COC(=O)[C@H]1[C@@H](c2ccc3ccccc3c2)C[C@@H]2[C@@H](O)C[C@H]1N2C (relative stereo) [Compound 14b, 2β-Carbomethoxy-3β-(2-naphthyl)-6β-hydroxy-8-methyl-8-azabicyclo{3.2.1}octane]",84 to 86,4,34.2,
"COC(=O)[C@@H]1[C@H]2C(=O)C[C@@H](C[C@H]1c1ccc(Cl)c(Cl)c1)N2C (relative stereo) [Compound 20, 2β-Carbomethoxy-3α-(3,4-dichlorophenyl)-8-methyl-8-azabicyclo{3.2.1}oct-7-one]",163.5 to 164.5,,7040,14.2
"COC(=O)C1C(c2ccc(Cl)c(Cl)c2)CC2CC(O)C1N2C (racemic) [Compound 15a, 2β-Carbomethoxy-3β-(3,4-dichlorophenyl)-7β-hydroxy-8-methyl-8-azabicyclo{3.2.1}octane]",185.5 to 186.5,20,27.7,
"COC(=O)C1=C(c2ccc3ccccc3c2)CC2CC(O)C1N2C (stereo not drawn) [Compound 8b, 2-Carbomethoxy-3-(2-naphthyl)-7β-hydroxy-8-methyl-8-azabicyclo{3.2.1}oct-2-ene]",164.2 to 165.2,15,677,
"COC(=O)C1=C(c2ccc(Cl)c(Cl)c2)C[C@@H]2[C@@H](O)C[C@H]1N2C (racemic) [Compound 7a, 2-Carbomethoxy-3-(3,4-dichlorophenyl)-6β-hydroxy-8-methyl-8-azabicyclo{3.2.1}oct-2-ene]",94 to 96,60,3320,
"COC(=O)[C@@H]1[C@H]2[C@H](O)C[C@@H](C[C@@H]1c1ccc3ccccc3c1)N2C (relative stereo) [Compound 15b, 2β-Carbomethoxy-3β-(2-naphthyl)-7β-hydroxy-8-methyl-8-azabicyclo{3.2.1}octane]",207.5 to 208.5,4,5.57,
"COC(=O)[C@H]1[C@@H](c2ccccc2)C[C@@H]2[C@@H](O)C[C@H]1N2C (relative stereo) [Compound 14d, 2β-Carbomethoxy-3β-phenyl-6β-hydroxy-8-methyl-8-azabicyclo{3.2.1}octane]",150 to 152,14,88000,
"COC(=O)[C@H]1[C@@H](c2ccc(Cl)c(Cl)c2)C[C@@H]2CC(=O)[C@H]1N2C (relative stereo) [Compound 19, 2β-Carbomethoxy-3β-(3,4-dichlorophenyl)-8-methyl-8-azabicyclo{3.2.1}oct-7-one]",84.4 to 86.4,,290,
"COC(=O)[C@@H]1[C@H]2C[C@H](O)[C@@H](C[C@H]1c1ccc3ccccc3c1)N2C (relative stereo) [Compound 17b, 2β-Carbomethoxy-3α-(2-naphthyl)-6β-hydroxy-8-methyl-8-azabicyclo{3.2.1}octane]",93.5 to 94.5,6,180,
"COC(=O)C1C(c2ccc(F)cc2)CC2C(O)CC1N2C (stereo not drawn) [Compound 14c, 2β-Carbomethoxy-3β-(4-fluorophenyl)-6β-hydroxy-8-methyl-8-azabicyclo{3.2.1}octane]",162 to 164,>42,> 20000,
"COC(=O)[C@@H]1[C@H]2[C@H](O)C[C@@H](C[C@H]1OC(c1ccc(F)cc1)c1ccc(F)cc1)N2C (relative stereo) [Compound 32b, 2β-Carbomethoxy-3α-bis(fluorophenyl)methoxy-7β-hydroxy-8-methyl-8-azabicyclo{3.2.1}octane]",150 to 152,,9560,
"CCC(=O)[C@@H]1[C@H]2[C@H](O)C[C@@H](C[C@@H]1c1ccc(Cl)c(Cl)c1)N2C (relative stereo) [Compound 23, 1-{3β-(3,4-Dichlorophenyl)-7β-hydroxy-8-methyl-8-azabicyclo{3.2.1}oct-2-yl}propan-1-one]",195.5 to 196.5,,97,0.81
"COC(=O)C1=C(c2ccc3ccccc3c2)CC2C(O)CC1N2C (stereo not drawn) [Compound 7b, 2-Carbomethoxy-3-(2-naphthyl)-6β-hydroxy-8-methyl-8-azabicyclo{3.2.1}oct-2-ene]",165 to 167,1,260,
"COC(=O)[C@@H]1[C@H]2[C@H](O)C[C@@H](C[C@H]1c1ccc(F)cc1)N2C (relative stereo) [Compound 18c, 2β-Carbomethoxy-3α-(4-fluorophenyl)-7β-hydroxy-8-methyl-8-azabicyclo{3.2.1}octane]",177.2 to 179,>120,> 20000,
"COC(=O)C1=C(c2ccccc2)CC2C(O)CC1N2C (stereo not drawn) [Compound 7d, 2-Carbomethoxy-3-phenyl-6β-hydroxy-8-methyl-8-azabicyclo{3.2.1}oct-2-ene]",165 to 167,1,> 100000,> 150000
"COC(=O)[C@@H]1[C@H]2C[C@@H](O)[C@@H](C[C@H]1c1ccc(Cl)c(Cl)c1)N2C (relative stereo) [Compound 30a, 2β-Carbomethoxy-3α-(3,4-dichlorophenyl)-6α-hydroxy-8-methyl-8-azabicyclo{3.2.1}octane]",161.2 to 162.2,,10700,
"CCC(=O)[C@@H]1[C@H]2[C@H](O)C[C@@H](C[C@H]1c1ccc(Cl)c(Cl)c1)N2C (relative stereo) [Compound 26, 1-{3α-(3,4-Dichlorophenyl)-7β-hydroxy-8-methyl-8-azabicyclo{3.2.1}oct-2-yl}propan-1-one]",113.1 to 114.1,,2520,1.1
"COC(=O)C1=C(c2ccccc2)C[C@@H]2C[C@@H](O)[C@H]1N2C (racemic) [Compound 8d, 2-Carbomethoxy-3-phenyl-7β-hydroxy-8-methyl-8-azabicyclo{3.2.1}oct-2-ene]",113 to 114,1,> 10000,> 10000
